The source of these data is patent US20150202179A1, “FATTY ACID DERIVATIVES FOR USE IN A METHOD OF TREATING DEPRESSION AND ASSOCIATED CONDITIONS” (YISSUM RESEARCH DEVELOPMENT COMPANY OF THE HEBREW …, priority 2012, published 2015).

Each structure is given as a SMILES string. “Also recorded” adds a separate entry of the source.

One series has as its system serotonin (5HT) levels. As to the kind of experiment: Serotonin (5HT) determination in brain tissue by HPLC with electrochemical detection. Type of series: in vivo, mice. The settings on record: for 5HT: ng/g wet tissue +/− SEM; for 5HT levels in the hippocampus vs. control / 5HT levels in the hypothalamus vs. control: result in words. The procedure:
(§1) Solution of DHBA as internal standard in the concentration of: 1 μg/ml in 0.1M perchloric acid, were prepared. Standard solutions of NE and 5HT in the concentration of 1-0.1 μg/ml in 0.1M perchloric acid were prepared.
(§2) Tissues (hypothalamus and hippocampus) obtained from 6-8 mice were dissected on ice surface and kept at −80 C. Hypothalamus (HT) or hippocampus (HC) from 1 mice were weighted (weight of HT −10-20 mg, HC 30-40 mg) and placed in eppendorf micro-centrifuge tube, 1.5 ml. To each tube was added 120-160 μl of ice cold solution of Perchloric acid and DHBA, homogenized in ice bath on Sonics vibra cell, 3×20 sec., 0.4 watts and centrifuged at 14,000×g at 4° C. 10 min. Supernatant gained was stored in ice before analysis.
(§3) The HPLC system consisted of Jasco PU-980 pump, Jasco AS-950-10 autosampler cooled at 4° C., H3 ODS-125A 3 μm 125 mm×4.6 mm i.d. analytical column (Hichrom, UK) were used. Electrochemical detector Coulochem ESA 5100A with analytical cell model 5011 was used for control detector voltage and record the current. Working electrode was set at potential +350 mV. Control and data collection/processing were handled through Borwin chromatography software.
(§4) The mobile phase composition: A stock buffer was prepared as follows: 20 mM sodium dihydrogenorthophosphate, EDTA 3 mg/l, 1-heptanesulfonic acid 1 g/l were dissolved in 1 liter deionized distilled water and buffered to pH 3.7 using concentrated phosphoric acid. To prepare the mobile phase buffer was mixed with acetonitrile (Baker HPLC analyzed) in the ratio 85:15 (v/v), filtered through a 0.2 μm membrane filter and degassed under vacuum after mixing. Mobile phase flow rate 1 ml/min. Injection volume 20 μl, retention time for DHBA 4.2 min., norepinephrine—3.1 min., 5HT 8.6 min. For calibration curve 1 ug/ml solution of DHBA together with 1.0-0.1 μg/ml solutions of 5HT and NE were used. The ratio between 5HT or NE and DHBA used to calculate the level of 5HT and NE in the sample. Date are given in ng/g wet tissue +/−SEM.

The test system of series [1] is Norepinephrine (NE) levels. As to the kind of experiment: Norepinephrine (NE) determination in brain tissue by HPLC with electrochemical detection. Type of series: in vivo, mice. The settings on record: for NE: ng/g wet tissue +/− SEM; for norepinephrine levels in the hippocampus vs. control / norepinephrine levels in the hypothalamus vs. control: result in words. Here is the method: as §1, §2, §3, §4

The nature of series [2]: Weight and food consumption in Sabra mice. Type of series: in vivo. The procedure:
140 Female Sabra Mice 12 weeks old are divided to […] 10 mice in each group with equal weight. Mice are administered I.P. with either saline or 1 mg/kg Fluoxetine (PROZAC), compound 1, 4, 5, 7, 10, 11, 12, 13, 14, 15, 19, 26 for a 4 weeks period. On day 30 and on, mice were tested by the following behavioral tests. […]

Series [3] can be described thus: Weight and food consumption in OB/OB mice which lack the leptin gene. Type of series: in vivo. The text has this: Thus the compounds of the invention can be used to treat conditions that are mediated by the enhancement of leptin levels. In obesity there is high leptin level however the leptin receptors are not responding. High CNS leptin level has anti-depression effect however, if there is tolerance there is no anti depression effect.

A short description of series [4]: Forced Swim Test (FST), separated BALB/c mice. The settings on record: compounds 1 mg/kg i.p., imipramine 10 mg/kg i.p.; day 8; in relation to vehicle. Format: in vivo. The procedure: Forced swim test (FST): The animal is placed in a circular, transparent, plexiglass tank measuring 21 cm in diameter and 46 cm in height containing water 15 cm high, maintained at 23-25° C. […] Also measured is the latency period, the time elapsing, for each animal from immersion in the water tank until the first occurrence of immobility. Since climbing activity is minimal in mice, […].
50, 2 month old female BALB/c mice, 10 mice per group, on ad libitum diet were separated (each mouse in a different cage) for 9 days (Separation Stress, a model for depression). On the 7, 8, 9, 34-40 days mice were administered with either vehicle or compounds x, 12 and 15 (1 mg/kg i.p.) or imipramine 10 mg/kg (antidepressant) i.p. and tested in the forced swim test (FST) on day 8.

The nature of series [5]: Novelty Suppressed Feeding Test (NSFT), separated BALB/c mice. Type of series: in vivo. The settings on record: compounds 1 mg/kg i.p., day 9; for food intake in NSFT: in relation to vehicle and more than imipramine 10 mg/kg; for motor activity in NSFT: resembled imipramine 10 mg/kg. The procedure:
(§5) Novelty suppressed feeding test (NSFT): After the last treatment injection, all food is removed from the cage for 24 hours (water available ad libitum). At the end of this time, the animal is introduced into a 50×50×20 (height) cm wooden arena the floor of which is marked with equal rectangles of 10×10 cm. A pellet of food is placed on an elevated surface in the center of the arena. The time elapsing from the introduction of the animal into the arena until it commences eating (latency to feed) is recorded. The animal is removed from the arena immediately after it begins to eat or after not doing so for 5 min. During the test, the number of lines crossed by the animal is counted as a measure of motor activity, and calibrated for 5 min if the animal started eating before that. After the test, the animal is immediately transferred to its home cage and left to consume a previously weighed amount of food for 10 minutes. On completion of this period the food is weighed again to calculate the home cage food consumption.
50, 2 month old female BALB/c mice, 10 mice per group, on ad libitum diet were separated (each mouse in a different cage) for 9 days (Separation Stress, a model for depression). On the 7, 8, 9, 34-40, days mice were administered with either vehicle or compounds x, 12 and 15 (1 mg/kg i.p.) or imipramine 10 mg/kg (antidepressant) i.p. and tested in Novel Suppressed Feeding Test on day 9.
as §5, with “FIGS. 9A-9C show the results of the NSFT. […]” for “Novelty suppressed feeding test (NSFT):”, “hours.” for “hours (water available ad libitum).”, “into” for “into a 50×50×20 (height) cm wooden arena”, “open field test.” for “floor of which is marked with equal rectangles of 10×10 cm.”, “to find” for “elapsing from”, “food was” for “introduction of the animal into the arena until it commences eating (latency to feed) is”

Series [6] is described as follows: Eight Arm Maze Test, separated BALB/c mice. The settings on record: compounds 1 mg/kg i.p., imipramine 10 mg/kg i.p.; day 34-38; in relation to vehicle (p<0.05). Type of series: in vivo. Here is the method:
2 month old female BALB/c mice 10 mice per group were separated (each mouse in a different cage) for 9 days (a model for depression). On days 7, 8, 9, 34-40 days mice were administered with either vehicle or compounds X, 12 and 15 (1 mg/kg i.p.) or imipramine 10 mg/kg (anti-depressant) i.p. and tested in the Eight Arm Maze from day 34-38.

A short description of series [7]: Neurological score measured by the NSS method. Conditions: 1 mg/kg i.p. Type of series: in vivo, BALB/c mice.
Series [8] is described as follows: Tail Suspension Test, separated BALB/c mice (model for depression). Type of series: in vivo. The settings on record: compounds 1 mg/kg i.p., imipramine 10 mg/kg i.p.; day 7; in relation to vehicle. The text has this:
Tail suspension test (TST): Animals are suspended upside down by adhesive tape placed 1 cm from the tail tip. The elevation of the animal is 50 cm from the nearest surface. […] Statistical analysis compares the magnitude of immobility (in seconds) between different treatment groups. In this test, antidepressants characteristically cause an increase of the time fraction spent by the animal as active at the expense of the inactivity period.
50, 2 month old female BALB/c mice were separated (each mouse in a different cage) for 9 days period (a model for depression). On days 7, 8, 9, 34-40 mice were administered with either vehicle or compounds X, 12 and 15 (1 mg/kg i.p.) or imipramine 10 mg/kg (anti-depressant) i.p. and tested in the Tail suspension test on day 7 of the experiment (10 mice per group).

With `CCCCCCCC/C=C\CCCCCCCCOC(=O)N[C@H](CO)C(C)C` [Compound 12, Oleyloxycarbonyl-L-Valinol amide], the “5HT” value in the series on serotonin (5HT) levels (Hippocampus) is 332.1 ± 52.7 ng/g. The “5HT” value with serotonin (5HT) levels (Hypothalamus) is 810.5 ± 70.6 ng/g. For the same molecule, in the series on serotonin (5HT) levels, the “5HT levels in the hippocampus vs. control” value is “significantly enhanced; also recorded: increased significantly” and the “5HT levels in the hypothalamus vs. control” value was “increased significantly”. Also, the “NE” value in series [1] (Hippocampus) stood at 378.9 ± 31.4 ng/g. The “norepinephrine levels in the hippocampus vs. control” value in series [1] is “significantly enhanced; also recorded: increase significantly”. Further, in [2], the food consumption entry is on record as “significant decrease” and the “weight (weight loss)” value is on record as “significant weight loss; also recorded: significant decrease”. In [3], the food consumption entry was “did not change” and the “weight (weight loss)” value is reported as “do not produce weight loss; also recorded: did not change”. The “swimming activity in forced swim test” value in series [4] is “significantly enhanced swimming activity”. In addition, in [5], the “food intake in NSFT” value is “significantly enhanced food intake” and the “motor activity in NSFT” value is given as “enhanced motor activity”. Also, the “performance in the Eight Arm Maze” value in series [6] was “significantly improved performance”. Besides, the “neurological score (NSS method)” value in series [7] is listed as “did not affect neurological score”.

Consider `CCCCCCCC/C=C\CCCCCCCCNC(=O)N[C@H](CO)C(C)C` [Compound 15, Oleyl-amine-carbonyl-L-valinol], for which the entries for the “5HT” value with serotonin (5HT) levels (Hippocampus) and with serotonin (5HT) levels (Hypothalamus) were 396.7 ± 21 ng/g and 853 ± 78.3 ng/g, respectively. In addition, the “5HT levels in the hippocampus vs. control” value in the series with serotonin (5HT) levels was “increased significantly”; with serotonin (5HT) levels (listed as compound 15), “significantly enhanced”. Besides, the “5HT levels in the hypothalamus vs. control” value with serotonin (5HT) levels was “increased significantly”; in the series with serotonin (5HT) levels (listed as compound 15), “significantly enhanced”. For the same molecule, the “NE” value was found to be 373.7 ± 48.1 ng/g in series [1] (Hippocampus) and 1234.8 ± 59.8 ng/g in series [1] (Hypothalamus). Further, the “norepinephrine levels in the hippocampus vs. control” value in [1] is given as “increase significantly”; in [1] (listed as compound 15), “significantly enhanced”. Further, the “norepinephrine levels in the hypothalamus vs. control” value in [1] is listed as “increased significantly”; in series [1] (listed as compound 15) it was “significantly enhanced”. Also, the results for the food consumption result in series [2] and in series [3] were “significant decrease” and “did not change”, respectively. In addition, the results for the “weight (weight loss)” value in [2] and in series [3] were “significant weight loss; also recorded: significant decrease” and “do not produce weight loss; also recorded: did not change”, respectively. Moreover, the “activity in Tail Suspension Test” value in series [8] is given as “significantly enhanced activity”. The “swimming activity in forced swim test” value in series [4] is “significantly enhanced swimming activity”. Also, the “food intake in NSFT” value in series [5] is on record as “significantly enhanced food intake”. Further, the “motor activity in NSFT” value in [5] is “enhanced motor activity”. Also, in series [6], the “performance in the Eight Arm Maze” value is given as “significantly improved performance”. Also, the “neurological score (NSS method)” value in series [7] is reported as “did not affect neurological score”.
